# Reference: patent US20230218624A1 (Urovant Sciences GmbH, priority 2017, published 2023)
# Key:
# β2-AR = β2-AR (Homo sapiens, UniProt P07550); assay: Competition binding assay, membranes with recombinant β2-AR
# Plasma protein binding = type: in vitro ADME; conditions: human, plasma
# human plasma proteins = assay: Plasma protein binding; type: in vitro ADME
# CYP3A4 = CYP3A4 (Homo sapiens, UniProt P08684); assay: In vitro CYP metabolism; type: in vitro ADME
# [1] = Drug interaction: effect of co-administered medication on vibegron PK; type: in vivo, human
# Text: However, these interactions are not expected to be clinically significant.
# [2] = test system: males and females with OAB; assay: Phase 3 12-week placebo controlled study in OAB; type: in vivo, human; conditions: Week 12
# Protocol: After eight weeks, the dose could be increased to 100 mg once daily as clinically indicated.
# healthy subjects = assay: Phase 1 safety data; type: in vivo
# Protocol: Exposure, and therefore risk of adverse-events can be further reduced with a 50 mg dose.
# patients with OAB = assay: Phase 2b cardiovascular safety: orthostatic AEs, HR and BP changes; type: in vivo, human; conditions: for DBP change from baseline ≥5 mm Hg, subjects / DBP change from baseline ≥10 bpm, subjects / DBP change from baseline ≥15 bpm, subjects / HR change from baseline ≥5 bpm, subjects / HR change from baseline ≥10 bpm, subjects / HR change from baseline ≥15 bpm, subjects / SBP change from baseline ≥5 mm Hg, subjects / SBP change from baseline ≥10 bpm, subjects / SBP change from baseline ≥15 bpm, subjects: 3 consecutive post-baseline visits
# Text: None led to discontinuation. The overall incidence of orthostatic symptoms was low.
# Small differences in the percent of subjects exceeding categorical heart rate and blood pressure thresholds for vibegron were similar to those in the tolterodine arm.
# [3] = vibegron 100 mg single dose with multiple doses of 240 mg or 180 mg diltiazem
# Chain of CYP3A4 (P08684 whole entry): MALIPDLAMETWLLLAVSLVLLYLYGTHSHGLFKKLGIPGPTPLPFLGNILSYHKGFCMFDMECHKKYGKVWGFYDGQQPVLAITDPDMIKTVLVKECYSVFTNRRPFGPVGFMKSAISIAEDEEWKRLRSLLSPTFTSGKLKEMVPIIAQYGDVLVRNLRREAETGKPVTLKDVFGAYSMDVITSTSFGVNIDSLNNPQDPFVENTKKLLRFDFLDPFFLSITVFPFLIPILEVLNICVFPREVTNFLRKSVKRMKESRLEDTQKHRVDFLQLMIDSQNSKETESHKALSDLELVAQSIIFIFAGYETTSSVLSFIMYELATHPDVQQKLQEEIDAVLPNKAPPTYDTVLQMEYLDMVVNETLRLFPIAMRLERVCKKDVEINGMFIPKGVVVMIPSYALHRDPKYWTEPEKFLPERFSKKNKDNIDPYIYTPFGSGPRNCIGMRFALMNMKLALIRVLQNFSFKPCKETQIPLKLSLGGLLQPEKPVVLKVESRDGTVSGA
# Chain of β2-AR (P07550 whole entry): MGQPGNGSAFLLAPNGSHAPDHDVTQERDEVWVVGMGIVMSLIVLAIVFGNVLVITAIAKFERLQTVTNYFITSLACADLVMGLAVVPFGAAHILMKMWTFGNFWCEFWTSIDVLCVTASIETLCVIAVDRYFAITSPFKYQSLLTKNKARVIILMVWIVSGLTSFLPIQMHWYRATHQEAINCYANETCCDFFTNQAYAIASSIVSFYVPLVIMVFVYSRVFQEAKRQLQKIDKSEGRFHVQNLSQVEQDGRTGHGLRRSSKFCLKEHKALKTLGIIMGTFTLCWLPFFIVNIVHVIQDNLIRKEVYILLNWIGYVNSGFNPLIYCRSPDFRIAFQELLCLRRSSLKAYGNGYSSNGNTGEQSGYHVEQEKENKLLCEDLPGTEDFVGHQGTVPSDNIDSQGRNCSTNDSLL
structure (smiles),measurement,setting,value
"O=C(Nc1ccc(C[C@@H]2CC[C@H]([C@H](O)c3ccccc3)N2)cc1)[C@@H]1CCc2nccc(=O)n21 [Vibegron, (6S)—N-[4-[[(2S,5R)-5-[(R)-hydroxy(phenyl)methyl]pyrrolidin-2-yl]methyl]phenyl]-4-oxo-7,8-dihydro-6H-pyrrolo[1,2-a]pyrimidine-6-carboxamide]",binding to β2-AR,β2-AR,does not bind
same,fraction unbound,Plasma protein binding,0.49
same,bound to human plasma proteins,human plasma proteins,approximately 49%
same,CYP responsible for in vitro metabolism,CYP3A4,CYP3A4 is the predominant CYP responsible for in vitro metabolism
same,effect of tolterodine ER 4 mg on the pharmacokinetics of vibegron,[1]; in vivo,no effect
same,"Cmax of vibegron, geometric mean",[1]; vibegron 100 mg single dose + diltiazem ER 240 mg QD,167 ng/mL
same,GM AUC0-inf increase,[1]; [3],63%
same,GM Cmax increase,[1]; [3],68%
same,GM t1/2,[1]; vibegron with diltiazem,75.4 h
same,"Micturitions, LS mean placebo adjusted change from baseline (95% CI)",[2]; 50 mg,"−0.86 (−1.12, −0.60)"
same,"Total incontinence episodes, LS mean placebo adjusted change from baseline (95% CI)",[2]; 50 mg,"−0.30 (−0.49, −0.12)"
same,"Urge urinary incontinence episodes, LS mean placebo adjusted change from baseline (95% CI)",[2]; 50 mg,"−0.27 (−0.44, −0.10)"
same,"Urgency episodes, LS mean placebo adjusted change from baseline (95% CI)",[2]; 50 mg,"−0.51 (−0.76, −0.25)"
same,"Volume voided, LS mean placebo adjusted change from baseline (95% CI)",[2]; 50 mg,"25.76 (20.02, 31.46) mL"
same,"Micturitions, LS mean placebo adjusted change from baseline (95% CI)",[2]; 100 mg,"−0.81 (−1.07, −0.55)"
same,"Total incontinence episodes, LS mean placebo adjusted change from baseline (95% CI)",[2]; 100 mg,"−0.43 (−0.61, −0.24)"
same,"Urge urinary incontinence episodes, LS mean placebo adjusted change from baseline (95% CI)",[2]; 100 mg,"−0.39 (−0.55, −0.22)"
same,"Urgency episodes, LS mean placebo adjusted change from baseline (95% CI)",[2]; 100 mg,"−0.67 (−0.93, −0.42)"
same,"Volume voided, LS mean placebo adjusted change from baseline (95% CI)",[2]; 100 mg,"22.16 (16.44, 27.89) mL"
same,tolerability,"healthy subjects; Phase 1 program, single 2 to 600 mg, multiple 25 to 400 mg",generally well tolerated
same,orthostatic AEs,healthy subjects; vibegron 100 mg coadministered in essential hypertension on metoprolol or amlodipine,no occurrences of orthostatic AEs
same,"SBP and DBP mean changes at Week 1 and mean maximum changes over 8 weeks, difference between placebo and vibegron",patients with OAB; 50 mg and 100 mg,< 1 mm Hg
same,"HR mean maximum changes over 8 weeks, comparable to placebo",patients with OAB; all doses,< 2 bpm
same,"DBP change from baseline, mean (week 1)",patients with OAB; vibegron 3 mg,−0.37 mm Hg
same,"DBP change from baseline, mean maximum (week 1 to 8)",patients with OAB; vibegron 3 mg,5.03 mm Hg
same,"HR change from baseline, mean (week 1)",patients with OAB; vibegron 3 mg,0.36 bpm
same,"HR change from baseline, mean maximum (week 1 to 8)",patients with OAB; vibegron 3 mg,5.57 bpm
same,"SBP change from baseline, mean (week 1)",patients with OAB; vibegron 3 mg,−0.35 mm Hg
same,"SBP change from baseline, mean maximum (week 1 to 8)",patients with OAB; vibegron 3 mg,7.14 mm Hg
same,"DBP change from baseline ≥5 mm Hg, subjects",patients with OAB; vibegron 3 mg,(10.0) %
same,"DBP change from baseline ≥10 bpm, subjects",patients with OAB; vibegron 3 mg,(2.1) %
same,"DBP change from baseline ≥15 bpm, subjects",patients with OAB; vibegron 3 mg,(0.7) %
same,"HR change from baseline ≥5 bpm, subjects",patients with OAB; vibegron 3 mg,(11.4) %
same,"HR change from baseline ≥10 bpm, subjects",patients with OAB; vibegron 3 mg,(3.6) %
same,"HR change from baseline ≥15 bpm, subjects",patients with OAB; vibegron 3 mg,(0.7) %
same,"SBP change from baseline ≥5 mm Hg, subjects",patients with OAB; vibegron 3 mg,(15.0) %
same,"SBP change from baseline ≥10 bpm, subjects",patients with OAB; vibegron 3 mg,(7.1) %
same,"SBP change from baseline ≥15 bpm, subjects",patients with OAB; vibegron 3 mg,(2.9) %
same,"DBP change from baseline, mean (week 1)",patients with OAB; vibegron 15 mg,0.03 mm Hg
same,"DBP change from baseline, mean maximum (week 1 to 8)",patients with OAB; vibegron 15 mg,6.37 mm Hg
same,"HR change from baseline, mean (week 1)",patients with OAB; vibegron 15 mg,0.35 bpm
same,"HR change from baseline, mean maximum (week 1 to 8)",patients with OAB; vibegron 15 mg,6.56 bpm
same,"SBP change from baseline, mean (week 1)",patients with OAB; vibegron 15 mg,−0.34 mm Hg
same,"SBP change from baseline, mean maximum (week 1 to 8)",patients with OAB; vibegron 15 mg,8.93 mm Hg
same,subjects with orthostatic related AEs,patients with OAB; vibegron 15 mg group,0.3%
same,"DBP change from baseline ≥5 mm Hg, subjects",patients with OAB; vibegron 15 mg,(11.4) %
same,"DBP change from baseline ≥10 bpm, subjects",patients with OAB; vibegron 15 mg,(2.3) %
same,"DBP change from baseline ≥15 bpm, subjects",patients with OAB; vibegron 15 mg,(0.8) %
same,"HR change from baseline ≥5 bpm, subjects",patients with OAB; vibegron 15 mg,(12.9) %
same,"HR change from baseline ≥10 bpm, subjects",patients with OAB; vibegron 15 mg,(3.0) %
same,"HR change from baseline ≥15 bpm, subjects",patients with OAB; vibegron 15 mg,(0.8) %
same,"SBP change from baseline ≥5 mm Hg, subjects",patients with OAB; vibegron 15 mg,(16.7) %
same,"SBP change from baseline ≥10 bpm, subjects",patients with OAB; vibegron 15 mg,(6.8) %
same,"SBP change from baseline ≥15 bpm, subjects",patients with OAB; vibegron 15 mg,(0.8) %
same,"DBP change from baseline, mean (week 1)",patients with OAB; vibegron 50 mg,−0.70 mm Hg
same,"DBP change from baseline, mean maximum (week 1 to 8)",patients with OAB; vibegron 50 mg,4.19 mm Hg
same,"HR change from baseline, mean (week 1)",patients with OAB; vibegron 50 mg,0.29 bpm
same,"HR change from baseline, mean maximum (week 1 to 8)",patients with OAB; vibegron 50 mg,5.49 bpm
same,"SBP change from baseline, mean (week 1)",patients with OAB; vibegron 50 mg,−0.79 mm Hg
same,"SBP change from baseline, mean maximum (week 1 to 8)",patients with OAB; vibegron 50 mg,7.01 mm Hg
same,subjects with orthostatic related AEs,patients with OAB; vibegron 50 mg+tolterodine ER/vibegron 50 mg treatment group,0.8%
same,"DBP change from baseline ≥5 mm Hg, subjects",patients with OAB; vibegron 50 mg,(7.6) %
same,"DBP change from baseline ≥10 bpm, subjects",patients with OAB; vibegron 50 mg,(3.5) %
same,"DBP change from baseline ≥15 bpm, subjects",patients with OAB; vibegron 50 mg,(0.7) %
same,"HR change from baseline ≥5 bpm, subjects",patients with OAB; vibegron 50 mg,(8.3) %
same,"HR change from baseline ≥10 bpm, subjects",patients with OAB; vibegron 50 mg,(2.8) %
same,"HR change from baseline ≥15 bpm, subjects",patients with OAB; vibegron 50 mg,(0.7) %
same,"SBP change from baseline ≥5 mm Hg, subjects",patients with OAB; vibegron 50 mg,(16.7) %
